Assay results published in PubChem BioAssay (NCI).
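Values below derive from 48-hour exposures of cells grown in 96-well plates, with endpoints linearly interpolated between the two concentrations bracketing the appropriate inhibition level. Definition used: TGI = concentration required for complete inhibition of growth.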

What was measured:
Assay in all cases: inhibition of tumour cell growth, NCI panel, 48 h
786-0 renal = system: 786-0 renal
A498 renal = system: A498 renal
A549 NSCLC = system: A549 NSCLC
ACHN renal = system: ACHN renal
BT-549 breast = system: BT-549 breast
CCRF-CEM leukemia = system: CCRF-CEM leukemia
DU-145 prostate = system: DU-145 prostate
EKVX NSCLC = system: EKVX NSCLC
HCC-2998 colon = system: HCC-2998 colon
HCT-116 colon = system: HCT-116 colon
HCT-15 colon = system: HCT-15 colon
HL-60(TB) leukemia = system: HL-60(TB) leukemia
HOP-62 NSCLC = system: HOP-62 NSCLC
HOP-92 NSCLC = system: HOP-92 NSCLC
HS 578T breast = system: HS 578T breast
HT29 colon = system: HT29 colon
IGROV1 ovarian = system: IGROV1 ovarian
K-562 leukemia = system: K-562 leukemia
KM12 colon = system: KM12 colon
M14 melanoma = system: M14 melanoma
MALME-3M melanoma = system: MALME-3M melanoma
MCF7 breast = system: MCF7 breast
MDA-MB-231 breast = system: MDA-MB-231 breast
MDA-MB-435 = system: MDA-MB-435
MDA-N = system: MDA-N
MOLT-4 leukemia = system: MOLT-4 leukemia
NCI-H226 lung = system: NCI-H226 lung
NCI-H23 lung = system: NCI-H23 lung
NCI-H460 lung = system: NCI-H460 lung
NCI/ADR-RES ovarian = system: NCI/ADR-RES ovarian
OVCAR-3 ovarian = system: OVCAR-3 ovarian
OVCAR-5 ovarian = system: OVCAR-5 ovarian
OVCAR-8 ovarian = system: OVCAR-8 ovarian
PC-3 prostate = system: PC-3 prostate
RXF 393 renal = system: RXF 393 renal
SF-268 CNS = system: SF-268 CNS
SF-295 CNS = system: SF-295 CNS
SF-539 CNS = system: SF-539 CNS
SK-MEL-28 melanoma = system: SK-MEL-28 melanoma
SK-MEL-5 melanoma = system: SK-MEL-5 melanoma
SK-OV-3 ovarian = system: SK-OV-3 ovarian
SN12C renal = system: SN12C renal
SNB-19 CNS = system: SNB-19 CNS
SR leukemia = system: SR leukemia
SW-620 colon = system: SW-620 colon
T-47D breast = system: T-47D breast
TK-10 renal = system: TK-10 renal
U251 CNS = system: U251 CNS
UACC-62 melanoma = system: UACC-62 melanoma
CAKI-1 renal = system: CAKI-1 renal
COLO 205 colon = system: COLO 205 colon
LOX IMVI melanoma = system: LOX IMVI melanoma
NCI-H522 lung = system: NCI-H522 lung
SK-MEL-2 melanoma = system: SK-MEL-2 melanoma
SNB-75 CNS = system: SNB-75 CNS
UACC-257 melanoma = system: UACC-257 melanoma
UO-31 renal = system: UO-31 renal

Structure (SMILES): CCN(CC)c1nc(NC2CCCCC2)c2nc(N(CC)CC)nc(NC3CCCCC3)c2n1
- TGI (786-0 renal): > 100 µM
- TGI (A498 renal): > 100 µM
- TGI (A549 NSCLC): > 100 µM
- TGI (ACHN renal): > 100 µM
- TGI (BT-549 breast): > 100 µM
- TGI (CCRF-CEM leukemia): > 100 µM
- TGI (DU-145 prostate): > 100 µM
- TGI (EKVX NSCLC): > 100 µM
- TGI (HCC-2998 colon): > 100 µM
- TGI (HCT-116 colon): > 100 µM
- TGI (HCT-15 colon): > 100 µM
- TGI (HL-60(TB) leukemia): > 100 µM
- TGI (HOP-62 NSCLC): > 100 µM
- TGI (HOP-92 NSCLC): > 100 µM
- TGI (HS 578T breast): > 100 µM
- TGI (HT29 colon): > 100 µM
- TGI (IGROV1 ovarian): > 100 µM
- TGI (K-562 leukemia): > 100 µM
- TGI (KM12 colon): > 100 µM
- TGI (M14 melanoma): > 100 µM
- TGI (MALME-3M melanoma): > 100 µM
- TGI (MCF7 breast): > 100 µM
- TGI (MDA-MB-231 breast): > 100 µM
- TGI (MDA-MB-435): > 100 µM
- TGI (MDA-N): > 100 µM
- TGI (MOLT-4 leukemia): > 100 µM
- TGI (NCI-H226 lung): > 100 µM
- TGI (NCI-H23 lung): > 100 µM
- TGI (NCI-H460 lung): > 100 µM
- TGI (NCI/ADR-RES ovarian): > 100 µM
- TGI (OVCAR-3 ovarian): > 100 µM
- TGI (OVCAR-5 ovarian): > 100 µM
- TGI (OVCAR-8 ovarian): > 100 µM
- TGI (PC-3 prostate): > 100 µM
- TGI (RXF 393 renal): 99.8 µM
- TGI (SF-268 CNS): > 100 µM
- TGI (SF-295 CNS): > 100 µM
- TGI (SF-539 CNS): > 100 µM
- TGI (SK-MEL-28 melanoma): > 100 µM
- TGI (SK-MEL-5 melanoma): > 100 µM
- TGI (SK-OV-3 ovarian): > 100 µM
- TGI (SN12C renal): > 100 µM
- TGI (SNB-19 CNS): > 100 µM
- TGI (SR leukemia): > 100 µM
- TGI (SW-620 colon): > 100 µM
- TGI (T-47D breast): > 100 µM
- TGI (TK-10 renal): > 100 µM
- TGI (U251 CNS): > 100 µM
- TGI (UACC-62 melanoma): > 100 µM

Structure (SMILES): COc1ccc2oc(C(=O)N3CC(CCl)c4ccc(N)cc43)cc2c1 (configuration not stated)
- TGI (786-0 renal): 0.277 µM
- TGI (A498 renal): 0.865 µM
- TGI (A549 NSCLC): > 100 µM
- TGI (BT-549 breast): 1.85 µM
- TGI (CAKI-1 renal): 0.648 µM
- TGI (CCRF-CEM leukemia): 9.17 µM
- TGI (COLO 205 colon): 1.28 µM
- TGI (DU-145 prostate): 1.62 µM
- TGI (EKVX NSCLC): 4 µM
- TGI (HCC-2998 colon): 1.19 µM
- TGI (HCT-116 colon): 0.576 µM
- TGI (HCT-15 colon): 3.18 µM
- TGI (HL-60(TB) leukemia): 15.6 µM
- TGI (HOP-62 NSCLC): > 100 µM
- TGI (HOP-92 NSCLC): 18.7 µM
- TGI (HS 578T breast): 3.53 µM
- TGI (HT29 colon): 1.44 µM
- TGI (IGROV1 ovarian): 0.782 µM
- TGI (K-562 leukemia): > 63.4 µM
- TGI (KM12 colon): 1.45 µM
- TGI (LOX IMVI melanoma): 32 µM
- TGI (MCF7 breast): 3.02 µM
- TGI (MDA-MB-231 breast): > 26.7 µM
- TGI (MDA-MB-435): 1.24 µM
- TGI (MDA-N): 1.82 µM
- TGI (MOLT-4 leukemia): 5.44 µM
- TGI (NCI-H226 lung): 14.1 µM
- TGI (NCI-H23 lung): 1.1 µM
- TGI (NCI-H460 lung): 1.74 µM
- TGI (NCI-H522 lung): 0.0828 µM
- TGI (NCI/ADR-RES ovarian): 0.758 µM
- TGI (OVCAR-3 ovarian): > 100 µM
- TGI (OVCAR-5 ovarian): > 41 µM
- TGI (OVCAR-8 ovarian): 1.51 µM
- TGI (PC-3 prostate): > 21.3 µM
- TGI (RXF 393 renal): 0.532 µM
- TGI (SF-268 CNS): 9.61 µM
- TGI (SF-295 CNS): > 100 µM
- TGI (SF-539 CNS): 5.66 µM
- TGI (SK-MEL-2 melanoma): 0.72 µM
- TGI (SK-MEL-28 melanoma): 2.55 µM
- TGI (SK-OV-3 ovarian): 8.78 µM
- TGI (SN12C renal): 8.5 µM
- TGI (SNB-19 CNS): 19.5 µM
- TGI (SNB-75 CNS): 3.23 µM
- TGI (SR leukemia): 4.76 µM
- TGI (SW-620 colon): 31.5 µM
- TGI (T-47D breast): 3.87 µM
- TGI (TK-10 renal): 7.12 µM
- TGI (U251 CNS): 15.2 µM
- TGI (UACC-257 melanoma): 6.57 µM
- TGI (UACC-62 melanoma): 0.496 µM
- TGI (UO-31 renal): 0.617 µM
